Experimental data taken from US20220273752A1, “MODULATION OF DENDRITIC CELL FUNCTION BY THE PHOSPHOLIPID MESSENGER LPA” (Cornell University, priority 2019, published 2022).

Experiments:
Assay type in all cases: cell-based, murine
[1] = test system: bone marrow-derived dendritic cells (BMDCs); test: Bodipy 493/503 staining of intracellular lipids in BMDCs by FACS; conditions: 100 μM LPA, 6 hours
Source text: Bodipy 493/503 staining was used to detect intracellular lipids by FACS. ***P<0.0005. FIG. 2B graphically illustrates quantities of Bodipy-stained intracellular lipids in LPA-treated cells compared to untreated cells.

[2] = test system: bone marrow derived DCs (BMDCs); test: LPA receptor gene expression in BMDCs by RNA-seq; parameters: Lpar1 expression level / Lpar3 expression level / Lpar4 expression level / Lpar5 expression level / Lpar6 expression level: unit not given here; conditions: RNA-seq relative expression
Procedure: FIG. 1 illustrates relative expression levels of genes encoding lysophosphatidic acid (LPA) receptors in the indicated murine dendritic cell (DC) populations, as determined by RNA-seq. Ovarian cancer DCs were sorted from tumor locations of mice bearing ID8-based metastatic ovarian carcinoma for 24 days.
Relative expression levels of genes encoding LPA receptors in the indicated dendritic cell (DC) populations was determined by RNA-seq.
FIG. 1 illustrates that murine bone marrow derived DCs (BMDCs) as well as DCs infiltrating ovarian tumors expressed significant levels of genes encoding various LPA receptors, particularly Lpar6 (see also Table 3).

[3] = test system: TBK1 and IRF3 proteins in BMDCs; test: Western blot of TBK1 and IRF3 phosphorylation in BMDCs; conditions: LPS- or Poly(I:C)-treated BMDCs; compared with untreated
Procedure: The activation status of signaling pathways implicated in the optimal induction of type-I IFNs was then evaluated.

BMDCs = test: RT-qPCR of type-I IFN target genes in BMDCs
Procedure: FIG. 11A-11H illustrate that LPA downregulates type-I IFN target genes in dendritic cells. BMDCs were left untreated or incubated with LPA (100 uM) for 2 hours and 6 hours, and gene expression was determined by RT-qPCR. **P<0.001, ***P<0.0005, ****P<0.0001. FIG. 11A illustrates downregulation of Ddx58 mRNA (encoding DExD/H-box helicase 58) relative to Actb expression at 2 hours and 6 hours after LPA treatment of BMDCs. FIG. 11B illustrates downregulation of Ifit1 mRNA (encoding interferon-induced protein with tetratricopeptide repeats 1) relative to Actb expression at 2 hours and 6 hours after LPA treatment of BMDCs. FIG. 11C illustrates downregulation of Ifit2 mRNA (encoding interferon-induced protein with tetratricopeptide repeats 2) relative to Actb expression at 2 hours and 6 hours after LPA treatment of BMDCs. FIG. 11D illustrates downregulation of Isg15 mRNA (interferon-stimulated gene 15) relative to Actb expression at 2 hours and 6 hours after LPA treatment of BMDCs. FIG. 11E illustrates downregulation of Ciita mRNA (encoding a Class II Major Histocompatibility Complex Transactivator) relative to Actb expression at 2 hours and 6 hours after LPA treatment of BMDCs. FIG. 11F illustrates downregulation of Oas1a mRNA (encoding 2′-5′ oligoadenylate synthetase 1A) relative to Actb expression at 2 hours and 6 hours after LPA treatment of BMDCs. […]

## lysophosphatidic acid [LPA]
[1]
  intracellular lipid accumulation in dendritic cells: induces intracellular lipid accumulation
[2]; BMDC + LPA (2 hr.)
  Lpar1 expression level: 8.540
  Lpar2 expression level: 0.303
  Lpar3 expression level: 0.300
  Lpar4 expression level: 0.040
  Lpar5 expression level: 1.517
  Lpar6 expression level: 62.313
[2]; BMDC + LPA (6 hr.)
  Lpar1 expression level: 2.240
  Lpar2 expression level: 0.353
  Lpar3 expression level: 0.253
  Lpar4 expression level: 0.007
  Lpar5 expression level: 2.837
  Lpar6 expression level: 72.007
[3]
  phosphorylation of TBK1 and IRF3 proteins: inhibited phosphorylation
BMDCs; BMDCs, LPA 100 uM, 2 hours and 6 hours
  type-I IFN target gene expression (Ddx58, Ifit1, Ifit2, Isg15, Ciita, Oas1a, Oas1g, Oas2): decreased
BMDCs; coculture
  expression of type-I IFN-related genes in BMDCs exposed to Talazoparib-treated ovarian cancer cells: prevented expression
